Reference: US20060069132A1, “Azolecarboxamide herbicides” (priority 2004, published 2006)

Assays:
redroot pigweed = test: Test A pre-/postemergence herbicide test; type: in vivo, Amaranthus retroflexus
How it was run: (§1)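 Plants are held in greenhouse about ten days after treatment, then compared with untreated controls and scored 0 (no effect) to 100 (complete control). Preemergence dosing is a directed soil spray on sown sandy loam; postemergence dosing is spray to runoff at 2–10 cm height.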

woolly cupgrass = test: Test C pre-/postemergence herbicide test; type: in vivo, Eriochloa villosa; conditions: for Cupgrass, Woolly plant response rating: 500 g ai/ha
How it was run: (§2)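 Greenhouse-grown plants were evaluated visually 12 to 14 days after treatment, with 100 meaning complete control and 0 no effect. Application was preemergence, or postemergence at 2 to 18 cm.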

johnsongrass = test: Test C pre-/postemergence herbicide test; type: in vivo, Sorghum halepense; conditions: for Johnsongrass plant response rating: 500 g ai/ha
How it was run: as §2

yellow nutsedge = test: Test C pre-/postemergence herbicide test; type: in vivo, Cyperus esculentus; conditions: for Nutsedge, Yellow plant response rating: 500 g ai/ha
How it was run: as §2

giant foxtail = test: Test A pre-/postemergence herbicide test; type: in vivo, Setaria faberi
How it was run: as §1

large crabgrass = test: Test A pre-/postemergence herbicide test; type: in vivo, Digitaria sanguinalis
How it was run: as §1

lambsquarters = test: Test C pre-/postemergence herbicide test; type: in vivo, Chenopodium album; conditions: for Lambsquarters plant response rating: 500 g ai/ha
How it was run: as §2

barnyardgrass = test: Test C flooded paddy test; type: in vivo, Echinochloa crus-galli; conditions: for Plant response rating, Barnyardgrass: 500 g ai/ha, visual rating after 12 to 14 days
How it was run: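 Weeds and wheat were sprayed after emergence, at a height of 2 to 18 cm (1–4 leaves), and paddy barnyardgrass was flooded and treated at two leaves. Assessment took place 12–14 days later in the greenhouse on a 0-to-100 visual control scale. A dash means no result was obtained.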

rice = test: Test B pre-/postemergence herbicide test; type: in vivo, Oryza sativa; conditions: preemergence; for Plant response rating, Rice: 500 g ai/ha
How it was run: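 Test chemicals in a non-phytotoxic solvent mixture with surfactant were applied preemergence to seeded species and postemergence to plants 2-18 cm tall (1- to 4-leaf stage); rice and barnyardgrass were also tested in a flooded paddy at the 2-leaf stage. Visual rating versus controls after 13-15 days in greenhouse, scale 0 (no effect) to 100 (complete control).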

[1] = Postemergence, 500 g ai/ha, 0 to 100 scale, 0 no effect, 100 complete control
[2] = Postemergence, 2000 g ai/ha, 0 to 100 scale, 0 no effect, 100 complete control
[3] = Preemergence, 2000 g ai/ha, visual rating, 0 to 100 scale (0 no effect, 100 complete control)
[4] = preemergence, 500 g ai/ha, visual injury, 0 to 100 scale (0 no effect, 100 complete control)
[5] = Postemergence, 250 g ai/ha, scale 0 to 100, 0 no effect, 100 complete control
[6] = postemergence, 125 g ai/ha, scale 0 to 100
[7] = postemergence, 62 g ai/ha, scale 0 to 100
[8] = 62 g ai/ha, scale 0 to 100 (0 no effect, 100 complete control)
[9] = 250 g ai/ha, scale of 0 to 100, 0 is no effect, 100 is complete control
[10] = scale 0 to 100 (0 no effect, 100 complete control)
[11] = Postemergence, 250 g ai/ha, 0 to 100 scale, 0 no effect, 100 complete control
[12] = Postemergence, 1000 g ai/ha, 0 to 100 scale, 0 no effect, 100 complete control
[13] = Preemergence, 1000 g ai/ha, visual rating, 0 to 100 scale (0 no effect, 100 complete control)
[14] = preemergence, 250 g ai/ha, visual injury, 0 to 100 scale (0 no effect, 100 complete control)
[15] = 125 g ai/ha, scale 0 (no effect) to 100 (complete control), visual, 12 to 14 days, preemergence
[16] = Preemergence, scale 0 to 100, 0 no effect, 100 complete control

CCn1nc(C(C)(C)C)cc1C(=O)Nc1cccc(OC(F)(F)F)c1 [Compound 272]
Pigweed plant response rating (redroot pigweed; [1]): 100 | Plant response rating, Pigweed (redroot pigweed; [2]): 100 | Pigweed plant response rating (redroot pigweed; [3]): 100 | Pigweed plant response rating (redroot pigweed; [4]): 100 | Cupgrass, Woolly plant response rating (woolly cupgrass; Postemergence, scale 0 to 100): 65 | Plant response rating, Cupgrass, Woolly (woolly cupgrass; [5]): 60 | Plant response rating, Cupgrass, Woolly (woolly cupgrass; [6]): 40 | Plant response rating, Cupgrass, Woolly (woolly cupgrass; [7]): 25 | Johnsongrass plant response rating (johnsongrass; Postemergence, scale 0 to 100): 55 | Plant response rating, Johnsongrass (johnsongrass; [5]): 45 | Plant response rating, Johnsongrass (johnsongrass; [6]): 40 | Plant response rating, Johnsongrass (johnsongrass; [7]): 10 | Nutsedge, Yellow plant response rating (yellow nutsedge; Postemergence, scale 0 to 100): 0 | Plant response rating, Nutsedge, Yellow (yellow nutsedge; [5]): 0 | Plant response rating, Nutsedge, Yellow (yellow nutsedge; [6]): 0 | Plant response rating, Nutsedge, Yellow (yellow nutsedge; [7]): 0 | Foxtail, Giant plant response rating (giant foxtail; [1]): 45 | Plant response rating, Foxtail, Giant (giant foxtail; [2]): 95 | Foxtail, Giant plant response rating (giant foxtail; [3]): 100 | Foxtail, Giant plant response rating (giant foxtail; [4]): 90 | Crabgrass, Large plant response rating (large crabgrass; [1]): 55 | Plant response rating, Crabgrass, Large (large crabgrass; [2]): 90 | Crabgrass, Large plant response rating (large crabgrass; [3]): 100 | Crabgrass, Large plant response rating (large crabgrass; [4]): 85 | Lambsquarters plant response rating (lambsquarters; Postemergence, scale 0 to 100): 100 | Plant response rating, Lambsquarters (lambsquarters; [5]): 100 | Plant response rating, Lambsquarters (lambsquarters; [6]): 100 | Plant response rating, Lambsquarters (lambsquarters; [7]): 100 | Barnyardgrass plant response rating (barnyardgrass; [8]): 0 | Barnyardgrass plant response rating (barnyardgrass; 125 g ai/ha, scale 0 to 100 (0 no effect, 100 complete control)): 0 | Barnyardgrass plant response rating (barnyardgrass; [9]): 10 | Plant response rating, Barnyardgrass (barnyardgrass; [10]): 30 | Rice plant response rating (0 to 100 scale) (rice; 125 g ai/ha, 0 = no effect, 100 = complete control): 0 | Plant response rating, Rice (rice; visual rating, 0 = no effect, 100 = complete control): 20

CCn1nc(C(C)(C)C)cc1C(=O)Nc1cccc(S(=O)(=O)C(F)(F)F)c1 [Compound 134]
Pigweed plant response rating (redroot pigweed; [11]): 85 | Plant response rating, Pigweed (redroot pigweed; [12]): 100 | Pigweed plant response rating (redroot pigweed; [13]): 100 | Pigweed plant response rating (redroot pigweed; [14]): 35 | Plant response rating (0 = no effect, 100 = complete control), Cupgrass, Woolly (woolly cupgrass; 62 g ai/ha, preemergence): 0 | Plant response rating, Cupgrass, Woolly (woolly cupgrass; [15]): 0 | Plant response rating, Cupgrass, Woolly (woolly cupgrass; 250 g ai/ha, scale 0 to 100 (0 no effect, 100 complete control), visual, 12 to 14 days, preemergence): 20 | Cupgrass, Woolly plant response rating (woolly cupgrass; [16]): 45 | Plant response rating (0 = no effect, 100 = complete control), Johnsongrass (johnsongrass; 62 g ai/ha, preemergence): 0 | Plant response rating, Johnsongrass (johnsongrass; [15]): 40 | Johnsongrass plant response rating (johnsongrass; [16]): 65 | Plant response rating (0 = no effect, 100 = complete control), Nutsedge, Yellow (yellow nutsedge; 62 g ai/ha, preemergence): 0 | Plant response rating, Nutsedge, Yellow (yellow nutsedge; [15]): 0 | Nutsedge, Yellow plant response rating (yellow nutsedge; [16]): 0 | Foxtail, Giant plant response rating (giant foxtail; [11]): 15 | Plant response rating, Foxtail, Giant (giant foxtail; [12]): 35 | Foxtail, Giant plant response rating (giant foxtail; [13]): 45 | Foxtail, Giant plant response rating (giant foxtail; [14]): 20 | Crabgrass, Large plant response rating (large crabgrass; [11]): 20 | Plant response rating, Crabgrass, Large (large crabgrass; [12]): 35 | Crabgrass, Large plant response rating (large crabgrass; [13]): 95 | Crabgrass, Large plant response rating (large crabgrass; [14]): 35 | Plant response rating (0 = no effect, 100 = complete control), Lambsquarters (lambsquarters; 62 g ai/ha, preemergence): 100 | Plant response rating, Lambsquarters (lambsquarters; [15]): 100 | Lambsquarters plant response rating (lambsquarters; [16]): 100 | Barnyardgrass plant response rating (barnyardgrass; [8]): 10 | Barnyardgrass plant response rating (barnyardgrass; 125 g ai/ha, scale of 0 to 100, 0 is no effect, 100 is complete control): 25 | Barnyardgrass plant response rating (barnyardgrass; [9]): 50 | Plant response rating, Barnyardgrass (barnyardgrass; [10]): 50 | Plant response rating, Rice (rice; visual rating 0-100, 0 no effect, 100 complete control): 50
